Where a name gives a salt, the structure may show the parent alone.

The target of one experiment is LsrK (Salmonella typhimurium, UniProt Q8ZKQ6). The experiment in a line: biochemical. In kind it is biochemical, S. typhimurium.
Chain of LsrK (Q8ZKQ6 whole entry): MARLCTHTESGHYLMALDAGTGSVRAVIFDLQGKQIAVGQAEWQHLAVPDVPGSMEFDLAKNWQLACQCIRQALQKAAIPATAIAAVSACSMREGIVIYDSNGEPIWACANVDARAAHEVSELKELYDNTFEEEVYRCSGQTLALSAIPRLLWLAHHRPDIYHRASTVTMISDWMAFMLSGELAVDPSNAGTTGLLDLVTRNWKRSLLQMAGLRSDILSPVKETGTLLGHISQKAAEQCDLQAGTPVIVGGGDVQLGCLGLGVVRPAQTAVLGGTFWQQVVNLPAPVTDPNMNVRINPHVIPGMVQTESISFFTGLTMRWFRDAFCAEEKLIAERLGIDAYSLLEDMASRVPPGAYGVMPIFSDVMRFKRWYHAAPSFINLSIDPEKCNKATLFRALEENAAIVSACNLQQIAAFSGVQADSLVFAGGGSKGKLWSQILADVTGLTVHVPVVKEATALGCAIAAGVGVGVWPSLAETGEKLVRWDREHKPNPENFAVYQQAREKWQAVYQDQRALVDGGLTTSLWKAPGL
Conditions: not given
With `C[C@]12CC[C@@H](O)C[C@@H]1CC[C@@H]1[C@@H]2CC[C@]2(C)C(=O)CC[C@@H]12` [ANDROSTERONE], the inhibition at 50 µM is 1%.
With `COc1ccc([C@@H](C)C(=O)c2ccc(O)cc2O)cc1` [ANGOLENSIN (R)], the inhibition at 50 µM was 1%.
On the same count and under the same terms, in the case of `COc1ccc2c(=O)c(CC(=O)O)coc2c1` [ANHYD[…]] it was 3%; in that of `c1ccc(CN(CC2=NCCN2)c2ccccc2)cc1` [ANTAZOLINE PHOSPHATE], 1%.
As for `O=C1c2c(O)cccc2Cc2cccc(O)c21` [ANTHRALIN], the inhibition at 50 µM is 8%.
In the case of `O=C1c2ccccc2C(=O)c2ccccc21` [ANTHRAQUINONE], the inhibition at 50 µM worked out at 0%.
In the case of `COc1cc(O)cc(OC)c1OC` [ANTIAROL], the inhibition at 50 µM is 21%.
With `O=c1cc(-c2ccc(O)cc2)oc2cc(O[C@@H]3O[C@H](CO)[C@@H](O)[C@H](O)[C@H]3O[C@@H]3OC[C@](O)(CO)[C@H]3O)cc(O)c12` [APIIN], the inhibition at 50 µM is 1%.
For the molecule `OC[C@H]1O[C@@H](Oc2ccc(O)cc2)[C@H](O)[C@@H](O)[C@@H]1O` [ARBUTIN], the inhibition at 50 µM was 2%.
As to `C[C@H]1[C@@H](O)O[C@@H]2O[C@@]3(C)CC[C@H]4[C@H](C)CC[C@@H]1[C@@]24OO3` [ARTENIMOL], the inhibition at 50 µM was determined as 0%.
In the case of `CCCCCCCCCCCCCCCC(=O)OC[C@H](O)[C@H]1OC(=O)C(O)=C1O` [ASCORBYL PALMITATE], the inhibition at 50 µM was determined as 28%.
For the molecule `C[C@H]1[C@H](C)CC[C@]2(C(=O)O)CC[C@]3(C)C(=CC[C@@H]4[C@@]5(C)C[C@@H](O)[C@H](O)[C@@](C)(CO)[C@@H]5CC[C@]43C)[C@H]12` [ASIATIC ACID], the inhibition at 50 µM is 2%.
The same measure, in the same setting: next, `CC(=O)Oc1ccccc1C(=O)O` [ASPIRIN]: 0%; `CC1=C(/C=C/C(C)=C/C=C/C(C)=C/C=C/C=C(C)/C=C/C=C(C)/C=C/C2=C(C)C(=O)[C@@H](O)CC2(C)C)C(C)(C)C[C@H](O)C1=O` [ASTAXANTHIN]: 1%; `O=C1C(O)=C([C@H]2CC[C@H](c3ccc(Cl)cc3)CC2)C(=O)c2ccccc21` [ATOVAQUONE]: 1%.
On to `COC(=O)c1c(C)cc(OC(=O)c2c(C)cc(O)c(C=O)c2O)c(C)c1O` [ATRANORIN], for which the inhibition at 50 µM stood at 0%.
Consider `CN1[C@@H]2CC[C@H]1C[C@@H](OC(=O)C(CO)c1ccccc1)C2` (some centres unmarked) [ATROPINE SULFATE], for which the inhibition at 50 µM was 3%.
For the molecule `C#CCCCCCCCCCCCC(O)CC(O)COC(C)=O` (centres unmarked) [AVOCADYNE ACETATE], the inhibition at 50 µM turned out to be 1%.
On to `Nc1ncn([C@@H]2O[C@H](CO)[C@@H](O)[C@H]2O)c(=O)n1` [AZACITIDINE], for which the inhibition at 50 µM worked out at 9%.
Still for that read-out and setting: in the case of `O=C(CCCN1CCN(c2ccccn2)CC1)c1ccc(F)cc1` [AZAPERONE] it was 25%; in that of `[N-]=[N+]=CC(=O)OC[C@H](N)C(=O)O` [AZASERINE], 3%; in that of `O=C(O)CCCCCCCC(=O)O` [AZELAIC ACID], 3%.
As to `CN1CCCC(n2nc(Cc3ccc(Cl)cc3)c3ccccc3c2=O)CC1` (centres unmarked) [AZELASTINE HYDROCHLORIDE], the inhibition at 50 µM is 1%.
As to `CC1(C)S[C@@H]2[C@H](NC(=O)[C@H](NC(=O)N3CCNC3=O)c3ccccc3)C(=O)N2[C@H]1C(=O)O` [AZLOCILLIN SODIUM], the inhibition at 50 µM is 0%.
For `c1ccc(/N=N/c2ccccc2)cc1` [AZOBENZENE], the inhibition at 50 µM came out at 1%.
On to `C[C@H]1[C@H](NC(=O)/C(=N\OC(C)(C)C(=O)O)c2csc(N)n2)C(=O)N1S(=O)(=O)O` [AZTREONAM], for which the inhibition at 50 µM was 1%.
For the molecule `CCOC(=O)OC(C)OC(=O)[C@@H]1N2C(=O)[C@@H](NC(=O)[C@H](N)c3ccccc3)[C@H]2SC1(C)C` (some centres unmarked) [BACAMPICILLIN HYDROCHLORIDE], the inhibition at 50 µM stood at 5%.
For the molecule `CC(=O)O[C@H]1C(=O)[C@@]2(C)[C@H]([C@H](OC(=O)c3ccccc3)[C@]3(O)C[C@H](O)C(C)=C1C3(C)C)[C@]1(OC(C)=O)CO[C@@H]1C[C@@H]2O` [BACCATIN III], the inhibition at 50 µM amounted to 9%.
For the molecule `O=c1cc(-c2ccccc2)oc2cc(O)c(O)c(O)c12` [BAICALEIN], the inhibition at 50 µM amounted to 2%.
Still for that read-out and setting: next, `CCC1(CC)C(=O)NC(=O)NC1=O` [BARBITAL]: 1%; `CCOC(=O)[C@H](CCc1ccccc1)N[C@H]1CCc2ccccc2N(CC(=O)O)C1=O` [BENAZEPRIL HYDROCHLORIDE]: 0%.
For the molecule `NS(=O)(=O)c1cc2c(cc1C(F)(F)F)NC(Cc1ccccc1)NS2(=O)=O` (centres unmarked) [BENDROFLUMETHIAZIDE], the inhibition at 50 µM was determined as 0%.
In the case of `CC(Cc1cccc(C(F)(F)F)c1)NCCOC(=O)c1ccccc1` (centres unmarked) [BENFLUOREX HYDROCHLORIDE], the inhibition at 50 µM was determined as 4%.
On to `C/C(=C(\CCOP(=O)(O)O)SC(=O)c1ccccc1)N(C=O)Cc1cnc(C)nc1N` [BENFOTIAMINE], for which the inhibition at 50 µM came out at 0%.
As to `NC(CO)C(=O)NNCc1ccc(O)c(O)c1O` (centres unmarked) [BENSERAZIDE HYDROCHLORIDE], the inhibition at 50 µM is 97%.
Turning to `CCc1oc2ccccc2c1C(=O)c1cc(Br)c(O)c(Br)c1` [BENZBROMARONE], the inhibition at 50 µM stood at 106%.
Same read-out and setting: next, `O=C(O)c1ccccc1` [BENZOIC ACID]: 3%; `O=C(Oc1cccc2cccnc12)c1ccccc1` [BENZOXIQUINE]: 0%; `O=C(OOC(=O)c1ccccc1)c1ccccc1` [BENZOYL PEROXIDE]: 11%.
Turning to `S=C=NCc1ccccc1` [BENZYL ISOTHIOCYANATE], the inhibition at 50 µM was 2%.
As for `CC(C)COCC(CN(Cc1ccccc1)c1ccccc1)N1CCCC1` (centres unmarked) [BEPRIDIL HYDROCHLORIDE], the inhibition at 50 µM is 18%.
Turning to `COc1ccc2cc3[n+](cc2c1OC)CCc1cc2c(cc1-3)OCO2` [BERBERINE CHLORIDE], the inhibition at 50 µM amounted to 1%.
Take `COc1c(O)cc2c(c1O)[C@@H]1O[C@H](CO)[C@@H](O)[C@H](O)[C@H]1OC2=O` [BERGENIN]: the inhibition at 50 µM was determined as 0%.

Still in this experiment, the particulars now being: 50 µM.
For the molecule `C=CCc1cc(OC)c2c(c1OC)OCO2` [APIOLE], the “Inhibition (%)” value was 1.
Same read-out and setting: next, `COc1cc2c(cc1OC)-c1c(oc3cc(O)cc(O)c3c1=O)CO2` [APOTOXICAROL]: 1; `OCC(O)C(O)C(O)CO` (centres unmarked) [ARABITOL(D)]: 0; `Cl.N=C(N)NCCC[C@H](N)C(=O)O` [ARGININE HYDROCHLORIDE]: 1.
With `OC[C@H]1O[C@H]([S-])[C@H](O)[C@@H](O)[C@@H]1O.[Au+]` [AUROTHIOGLUCOSE], the “Inhibition (%)” value was 104.
As to `C=CCCCCCCCCCCCc1ccco1` [AVOCADENOFURAN], the “Inhibition (%)” value amounted to 2.
For the molecule `O=C(CNC(=O)c1ccc(Cl)cc1)NO` [BENURESTAT], the “Inhibition (%)” value came out at 3.
Turning to `C[N+](C)(CCOc1ccccc1)Cc1ccccc1.O=C([O-])c1cc2ccccc2cc1O` [BEPHENIUM HYDROXYNAPTHOATE], the “Inhibition (%)” value amounted to 1.
The same measure, in the same setting: next, `O=C1CCO1` [BETA-PROPIOLACTONE]: 0; `CCC(=O)OCC(=O)[C@@]1(OC(=O)CC)[C@@H](C)C[C@H]2[C@@H]3CCC4=CC(=O)C=C[C@]4(C)[C@@]3(F)[C@@H](O)C[C@@]21C` [BETAMETHASONE 17.21-DIPROPIONATE]: 0.

As usually defined, the inhibition is the drop in the measured response relative to a control, in per cent.

(Values after PMC6627609, “Targeting Quorum Sensing: High-Throughput Screening to Identify Novel LsrK Inhibitors” (International Journal of Molecular Sciences, 2019).)
